According to patent US10183021B2, “sGC stimulators” (Ironwood Pharmaceuticals, Inc., priority 2013, dated 2019):
Where two headings read alike, the source gives them in different places.

Columns and labels:
[1] = biological target: T1, soluble guanylate cyclase (sGC) (Homo sapiens (Human), UniProt Q02108+Q02153); experiment: sGC-HEK-cGMP assay with SNP incubation, LC/MS detection (Example 2A); type: cell-based
Procedure, shortened: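 HEK293 cells with endogenous sGC were pretreated 15 min at 37 °C with 0.5 mM IBMX, then exposed 10 min at 37 °C to compound (added from 0.0001–30 μM solutions) plus SNP (from 10 μM solution). After 0.1 M HCl lysis, cGMP was quantified by LC/MS against a standard curve.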

[2] = biological target: T1, soluble guanylate cyclase (sGC); experiment: sGC-HEK-cGMP assay, new protocol with DETA-NONOate, LC/MS detection (Example 2C); type: cell-based
[3] = HEK293 cells, 10 μM SNP, LC/MS detection, 100% = BAY 41-2272 at 10 μM, read-out: HEK assay Emax - unconstrained (%)
[4] = HEK293 cells, 10 μM SNP, LC/MS detection, top of curve not fitted to 100%, read-out: HEK assay EC50 - unconstrained
[5] = read-out: Absolute EC50 (uM) - binned
[6] = HEK293 cells, 10 μM SNP, LC/MS detection, top of curve fitted to 100%, read-out: HEK assay EC50 - constrained

T1 sequence (Q02153 whole entry): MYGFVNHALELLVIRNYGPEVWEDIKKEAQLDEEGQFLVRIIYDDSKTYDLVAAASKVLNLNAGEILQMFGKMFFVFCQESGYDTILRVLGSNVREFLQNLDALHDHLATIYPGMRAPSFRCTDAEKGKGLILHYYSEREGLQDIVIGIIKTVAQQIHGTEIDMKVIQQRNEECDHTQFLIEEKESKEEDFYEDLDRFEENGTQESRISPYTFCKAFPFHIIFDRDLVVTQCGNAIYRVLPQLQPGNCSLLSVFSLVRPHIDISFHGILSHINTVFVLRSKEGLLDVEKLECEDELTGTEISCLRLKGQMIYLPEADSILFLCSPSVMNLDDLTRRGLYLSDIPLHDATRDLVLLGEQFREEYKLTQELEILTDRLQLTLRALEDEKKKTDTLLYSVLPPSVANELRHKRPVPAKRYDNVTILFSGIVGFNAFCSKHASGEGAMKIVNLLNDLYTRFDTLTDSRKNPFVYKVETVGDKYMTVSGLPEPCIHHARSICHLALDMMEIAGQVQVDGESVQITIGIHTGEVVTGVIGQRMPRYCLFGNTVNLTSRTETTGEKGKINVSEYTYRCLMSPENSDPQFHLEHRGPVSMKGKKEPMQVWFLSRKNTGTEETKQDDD
T1 sequence (Q02108 whole entry): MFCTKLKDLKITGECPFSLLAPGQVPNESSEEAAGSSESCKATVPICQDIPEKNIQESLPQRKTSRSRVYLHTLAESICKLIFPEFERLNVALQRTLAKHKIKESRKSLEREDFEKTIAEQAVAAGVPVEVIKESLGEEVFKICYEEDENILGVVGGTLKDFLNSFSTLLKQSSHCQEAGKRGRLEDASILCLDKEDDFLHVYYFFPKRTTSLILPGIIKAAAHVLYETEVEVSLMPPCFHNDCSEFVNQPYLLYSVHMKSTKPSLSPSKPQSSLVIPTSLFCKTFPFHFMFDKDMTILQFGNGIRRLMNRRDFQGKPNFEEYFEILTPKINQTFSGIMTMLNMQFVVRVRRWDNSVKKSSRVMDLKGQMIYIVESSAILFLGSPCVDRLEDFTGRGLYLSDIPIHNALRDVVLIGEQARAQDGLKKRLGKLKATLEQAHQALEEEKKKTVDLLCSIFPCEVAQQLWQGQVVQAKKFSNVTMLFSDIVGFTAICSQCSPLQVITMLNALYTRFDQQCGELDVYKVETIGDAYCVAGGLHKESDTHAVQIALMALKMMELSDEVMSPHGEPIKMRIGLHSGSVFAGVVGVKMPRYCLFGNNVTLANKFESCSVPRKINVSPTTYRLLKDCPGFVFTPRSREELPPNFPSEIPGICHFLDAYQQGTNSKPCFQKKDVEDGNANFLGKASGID

Structure (SMILES)	Emax [1, 3] [%]	EC50 [1, 4] [µM]	EC50 [2, 5] [µM]	EC50 [1, 6] [µM]	EC50 [1] [µM]	Emax ([1]; HEK293, read-out: HEK assay Emax - unconstrained (%)) [%]	EC50 [2] [µM]
CN(Cc1nc(C(=O)O)cn1C)c1nc(-c2cc(-c3ccon3)n(Cc3ccccc3F)n2)ncc1F [Compound I-376]	100 to 120	5 to 10	> 1	–	–	–	–
O=C(O)C1c2ccccc2CN1c1nc(-c2cc(-c3ccon3)n(Cc3ccccc3F)n2)ncc1F (stereo not drawn) [Compound I-149]	–	–	> 1	> 10	–	–	–
CC(C)(C)OC(=O)N1CCN(c2nc(-c3cc(-c4ccon4)n(Cc4ccccc4F)n3)ncc2F)C(C(=O)O)C1 (stereo not drawn) [Compound I-101]	–	–	0.101 to 1	5 to 10	–	–	–
O=C(O)[C@@H]1Cc2ccccc2N1c1nc(-c2cc(-c3ccon3)n(Cc3ccccc3F)n2)ncc1F [Compound I-90]	40 to 60	5 to 10	> 1	–	–	–	–
CN(c1nc(-c2cc(-c3ccon3)n(Cc3ccccc3F)n2)ncc1F)[C@H](C(=O)O)C1CC1 [Compound I-239]	60 to 80	0.001 to 0.1	< 0.1	–	–	–	–
Oc1noc2c1CCN(c1nc(-c3cc(-c4ccon4)n(Cc4ccccc4F)n3)ncc1F)C2 [Compound I-364]	–	–	–	–	0.001 to 0.1	80 to 100	< 0.1
CN(Cc1nc(C(=O)O)co1)c1nc(-c2cc(-c3ccon3)n(Cc3ccccc3F)n2)ncc1F [Compound I-375]	100 to 120	0.1 to 0.5	> 1	–	–	–	–
O=C(O)[C@@H]1CCc2ccccc2[C@@H]1Nc1nc(-c2cc(-c3ccon3)n(Cc3ccccc3F)n2)ncc1F [Compound I-369]	60 to 80	0.001 to 0.1	< 0.1	–	–	–	–
O=C(O)C1c2ccc(O)cc2CCN1c1nc(-c2cc(-c3ccon3)n(Cc3ccccc3F)n2)ncc1F (stereo not drawn) [Compound I-127]	–	–	> 1	> 10	–	–	–
O=C(O)C1(Nc2nc(-c3cc(-c4ccon4)n(Cc4ccccc4F)n3)ncc2F)CCCC1 [Compound I-138]	–	–	> 1	1 to 5	–	–	–
O=C(O)C1CNCCN1c1nc(-c2cc(-c3ccon3)n(Cc3ccccc3F)n2)ncc1F (stereo not drawn) [Compound I-133]	–	–	> 1	> 10	–	–	–
CC(C)N(CC(=O)O)c1nc(-c2cc(-c3ccon3)n(Cc3ccccc3F)n2)ncc1F [Compound I-204]	–	–	0.101 to 1	> 10	–	–	–
CCOC(=O)c1csc(CN(C)c2nc(-c3cc(-c4ccon4)n(Cc4ccccc4F)n3)ncc2F)n1 [Compound I-372]	60 to 80	0.1 to 0.5	0.101 to 1	–	–	–	–
O=C(O)C1CCc2ccccc2N1c1nc(-c2cc(-c3ccon3)n(Cc3ccccc3F)n2)ncc1F (stereo not drawn) [Compound I-140]	80 to 100	1 to 5	0.101 to 1	–	–	–	–
O=C(O)C1c2[nH]cnc2CCN1c1nc(-c2cc(-c3ccon3)n(Cc3ccccc3F)n2)ncc1F (stereo not drawn) [Compound I-163]	–	–	> 1	> 10	–	–	–
O=[N+]([O-])c1cnc(-c2cc(-c3ccon3)n(Cc3ccccc3F)n2)nc1N1CCOCC1 [Compound I-14]	–	–	> 1	> 10	–	–	–
O=C(O)C1CN(c2nc(-c3cc(-c4ccon4)n(Cc4ccccc4F)n3)ncc2F)C1 [Compound I-53]	–	–	0.101 to 1	1 to 5	–	–	–
Fc1ccccc1Cn1nc(-c2ncc(F)c(NC3CCCNC3)n2)cc1-c1ccon1 (stereo not drawn) [Compound I-39]	60 to 80	5 to 10	0.101 to 1	–	–	–	–
O=C(O)[C@@H]1Cc2ccccc2[C@@H]1Nc1nc(-c2cc(-c3ccon3)n(Cc3ccccc3F)n2)ncc1F [Compound I-371]	10 to 20	> 10	< 0.1	–	–	–	–
O=C(O)C1(F)CCN(c2nc(-c3cc(-c4ccon4)n(Cc4ccccc4F)n3)ncc2F)CC1 [Compound I-188]	–	–	0.101 to 1	1 to 5	–	–	–

Structure (SMILES)	Emax [1, 3] [%]	EC50 [1, 4] [µM]	EC50 [2, 5] [µM]	EC50 [1, 6] [µM]	EC50 [1] [µM]	Emax ([1]; HEK293, read-out: HEK assay Emax - unconstrained (%)) [%]	EC50 [2] [µM]
CCOC(=O)CN1CCCN1c1nc(-c2cc(-c3ccon3)n(Cc3ccccc3F)n2)ncc1F [Compound I-213]	> 120	0.5 to 1	< 0.1	–	–	–	–
O=C(O)c1cccn1-c1nc(-c2cc(-c3ccon3)n(Cc3ccccc3F)n2)ncc1F [Compound I-104]	20 to 40	1 to 5	> 1	–	–	–	–
O=C(O)[C@@H]1[C@H]2CC[C@H](C2)N1c1nc(-c2cc(-c3ccon3)n(Cc3ccccc3F)n2)ncc1F [Compound I-365]	80 to 100	1 to 5	0.101 to 1	–	–	–	–
CN(CC1(C(=O)O)CC1)c1nc(-c2cc(-c3ccon3)n(Cc3ccccc3F)n2)ncc1F [Compound I-250]	80 to 100	0.001 to 0.1	< 0.1	–	–	–	–
COc1ccc2c(c1)CCN(c1nc(-c3cc(-c4ccon4)n(Cc4ccccc4F)n3)ncc1F)C2C(=O)O (stereo not drawn) [Compound I-126]	–	–	< 0.1	0.5 to 1	–	–	–
O=C(O)[C@@H](Cc1cc2ccccc2[nH]1)Nc1nc(-c2cc(-c3ccon3)n(Cc3ccccc3F)n2)ncc1F [Compound I-108]	–	–	0.101 to 1	5 to 10	–	–	–
CN(CC(=O)NS(=O)(=O)c1ccccc1)c1nc(-c2cc(-c3ccon3)n(Cc3ccccc3F)n2)ncc1F [Compound I-361]	0 to 10	0.1 to 0.5	< 0.1	–	–	–	–
O=C(O)C1CCN1c1nc(-c2cc(-c3ccon3)n(Cc3ccccc3F)n2)ncc1F (stereo not drawn) [Compound I-55]	–	–	0.101 to 1	1 to 5	–	–	–
CC[C@H]1CCCN(c2nc(-c3cc(-c4ccon4)n(Cc4ccccc4F)n3)ncc2F)[C@H]1C(=O)O [Compound I-455]	80 to 100	0.001 to 0.1	< 0.1	–	–	–	–
C[C@H]1CCCN(c2nc(-c3cc(-c4ccon4)n(Cc4cccc(F)c4F)n3)ncc2F)[C@H]1C(=O)O [Compound I-305]	0 to 10	> 10	< 0.1	–	–	–	–
O=C(O)C1(CNc2nc(-c3cc(-c4ccon4)n(Cc4ccccc4F)n3)ncc2F)CCCC1 [Compound I-129]	–	–	< 0.1	0.1 to 0.5	–	–	–
O=C(O)[C@H]1C[C@H](C(F)(F)F)CCN1c1nc(-c2cc(-c3ccon3)n(Cc3ccccc3F)n2)ncc1F (racemic) [Compound I-453]	0 to 10	1 to 5	0.101 to 1	–	–	–	–
CN(c1nc(-c2cc(-c3ccon3)n(Cc3ccccc3F)n2)ncc1F)[C@@H](Cc1ccccn1)C(=O)O [Compound I-257]	–	–	> 1	> 10	–	–	–
O=C(O)[C@H]1C[C@@H](C(F)(F)F)CCN1c1nc(-c2cc(-c3ccon3)n(Cc3ccccc3F)n2)ncc1F (racemic) [Compound I-452]	80 to 100	0.1 to 0.5	< 0.1	–	–	–	–
O=C(O)CC1CCN(c2nc(-c3cc(-c4ccon4)n(Cc4ccccc4F)n3)ncc2F)CC1 [Compound I-230]	40 to 60	> 10	< 0.1	–	–	–	–
O=C(O)CC1(Nc2nc(-c3cc(-c4ccon4)n(Cc4ccccc4F)n3)ncc2F)CCOCC1 [Compound I-245]	–	–	0.101 to 1	0.1 to 0.5	–	–	–
Fc1ccccc1Cn1nc(-c2nccc(N3CCOCC3)n2)cc1-c1ccon1 [Compound I-24]	40 to 60	0.1 to 0.5	< 0.1	–	–	–	–
O=C(O)[C@H]1[C@@H](C(F)(F)F)CCCN1c1nc(-c2cc(-c3ccon3)n(Cc3ccccc3F)n2)ncc1F [Compound I-454]	20 to 40	> 10	< 0.1	–	–	–	–
O=C(O)C(F)(F)CNc1nc(-c2cc(-c3ccon3)n(Cc3ccccc3F)n2)ncc1F [Compound I-206]	–	–	< 0.1	> 10	–	–	–
O=C(O)[C@H](Cc1cc2ccccc2[nH]1)Nc1nc(-c2cc(-c3ccon3)n(Cc3ccccc3F)n2)ncc1F [Compound I-81]	–	–	> 1	> 10	–	–	–
